Experiments:
[1] = tested on: primary colonic epithelial cells (PCECs); assay: Apoptosis of pre-treated PCECs induced by perforin and Granzyme B; format: cell-based, C57BL/6 mice; details: pre-treated 2 hours, then perforin and Granzyme B 4 hours
Method: Cell culture: C57BL/6 primary colonic epithelial cells (PCEC, C57-6047, Cell Biologics, Chicago, IL) were cultured in compete epithelial growth medium supplemented with insulin-transferrin-selenium, epidermal growth factor, glutamine, antibiotics, antimycotics and fecal bovine serum (#M6621, Cell Biologics). Cells were routinely tested for mycoplasma contamination using MycoAlert (#LT07-318, Lonza, Switzerland). Cells were treated with Mouse active perforin (#APB317Mu01, Cloud-Clone Corp., Katy, TX) and recombinant mouse Granzyme B (#140-03, PeproTech, Rocky Hill, NJ) for 4 to 6 hours in indicated concentrations following manufacturer's recommendations. Cells were incubated with GDF-15 (#8944-GD-025, 500 pg/mL, R&D Systems, Minneapolis, MN), Tiron (#172553, 10 mM, Sigma-Aldrich, St. Louis, MO), Trolox (#648471, 0.5 mM, Sigma-Aldrich), 4-Octyl itaconate (#SML2338, 0.1 mM, Sigma-Aldrich) and NAD (#N8285, 1 mM, Sigma-Aldrich).

[2] = tested on: isolated mitochondria of colon; assay: ATP detection assay in isolated mitochondria from IECs; format: biochemical, mice; details: 21 days post HCT, after malonate treatment
Method: Mitochondria Isolation: Isolated IECs from syngeneic and allogeneic recipients in mitochondria isolation buffer (MIB) were disrupted using a glass homogenizer with 2-3 strokes. MIB was composed of 70 mM sucrose (#S0389, Sigma-Aldrich), 210 mM mannitol (#M9546, Sigma-Aldrich), 5 mM HEPES, 1 mM EGTA (#E0396, Sigma-Aldrich), 0.5% BSA, pH 7.2 and protease inhibitor cocktail (#78429, Sigma-Aldrich). Homogenate was centrifuged at 800 g for 10 min at 4° C. Following centrifugation, fat/lipid was carefully aspirated, and the remaining supernatant was decanted through 2 layers of cheesecloth to a separate tube and centrifuged twice at 8000 g for 15 min at 4° C. After removal of the light mitochondrial layer, the pellet was resuspended in MIB and centrifuged at 8500 g for 10 min. The final pellet was resuspended in a minimal volume of mitochondrial assay solution (MAS) and kept on ice. […] Total protein (mg/ml) was determined via Pierce BCA Protein Assay (#23225, Thermo Scientific). […] The ATP level was measured using the Cell Titer Glo 2.0 luminescence assay (#G9243, Promega, Madison, WI). Luminescence was measured for 500 ms using a SpectraMax M3 Microplate reader (Molecular Devices, San Jose, CA).

[3] = tested on: primary colonic epithelial cells (PCECs); assay: 51Cr release cytotoxic killing assay, pre-treated PCECs as targets of primed T cells; format: cell-based, B6 WT mice; details: for cell death of pre-treated PCECs vs diluent: co-cultured with allo-primed T cells; for apoptosis of pre-treated PCECs: cultured with syngeneic T cells
SDHA = target: T1, SDHA (Mus musculus, UniProt Q8K2B3+Q9CQA3+Q9CXV1+Q9CZB0); assay: SDH enzyme staining of colon and ileum 12 h after oral gavage; format: in vivo, B6 WT mice; details: naive B6 WT, 12 h after administration
T1 construct: from tissue; host or cells: colon and ileum of naive B6 WT mice
T1 sequence (Q8K2B3 43-664): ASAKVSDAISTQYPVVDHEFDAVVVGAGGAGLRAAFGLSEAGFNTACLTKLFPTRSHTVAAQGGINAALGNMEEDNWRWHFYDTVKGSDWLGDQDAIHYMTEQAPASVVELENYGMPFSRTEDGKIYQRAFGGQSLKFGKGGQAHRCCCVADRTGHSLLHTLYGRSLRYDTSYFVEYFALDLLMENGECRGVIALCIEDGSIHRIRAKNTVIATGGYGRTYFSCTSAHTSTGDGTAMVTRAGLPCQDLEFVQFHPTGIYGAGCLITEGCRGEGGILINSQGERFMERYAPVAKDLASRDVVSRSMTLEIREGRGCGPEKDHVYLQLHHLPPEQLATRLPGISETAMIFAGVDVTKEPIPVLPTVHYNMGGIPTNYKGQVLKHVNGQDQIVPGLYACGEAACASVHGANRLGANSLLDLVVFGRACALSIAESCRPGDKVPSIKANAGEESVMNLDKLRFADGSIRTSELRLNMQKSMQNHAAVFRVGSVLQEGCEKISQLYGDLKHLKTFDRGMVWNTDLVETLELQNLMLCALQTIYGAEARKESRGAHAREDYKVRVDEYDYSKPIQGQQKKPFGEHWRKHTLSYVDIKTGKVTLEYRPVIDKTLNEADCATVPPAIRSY
T1 sequence (Q9CQA3 31-282): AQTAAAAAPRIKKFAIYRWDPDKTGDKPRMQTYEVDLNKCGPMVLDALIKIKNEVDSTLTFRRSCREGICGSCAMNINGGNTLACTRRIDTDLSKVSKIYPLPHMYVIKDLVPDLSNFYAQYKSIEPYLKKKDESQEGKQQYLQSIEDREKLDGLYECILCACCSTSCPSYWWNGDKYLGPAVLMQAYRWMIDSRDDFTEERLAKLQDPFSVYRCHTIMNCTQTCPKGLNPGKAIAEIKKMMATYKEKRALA
T1 sequence (Q9CZB0 30-169): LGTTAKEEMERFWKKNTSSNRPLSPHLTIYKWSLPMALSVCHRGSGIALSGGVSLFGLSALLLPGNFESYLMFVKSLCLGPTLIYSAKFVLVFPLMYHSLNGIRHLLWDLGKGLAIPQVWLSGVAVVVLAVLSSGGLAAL
T1 sequence (Q9CXV1 57-159): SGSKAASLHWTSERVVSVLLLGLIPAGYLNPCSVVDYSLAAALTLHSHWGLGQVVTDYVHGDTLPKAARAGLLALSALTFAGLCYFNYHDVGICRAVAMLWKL
Method: Hematopoietic cell transplantation (HCT): Splenic T cells from donors were enriched, and the BM was depleted of T cells by autoMACS (Miltenyi Biotec, Bergisch Gladbach, Germany) utilizing CD90.2 microbeads (#130-121-278, Miltenyi Biotec). WT B6, C3H.SW, Sdhaf1^−/−, Sdha^Δ/IEC , Irg1h−/−B6 and BALB/c animals were used as recipients and received 1,000 cGy (WT B6, Sdhaf1^−/−and Sdha^Δ/IEC) or 800 cGy (BALB/c) TBI on day −1, respectively, and 1×10^6 (C3H.SW→C57BL/B6 or C57BL/B6→BALB/c), 3×10^6 (BALB/c→C57BL/6, Sdhaf1^−/−, Sdha^Δ/IEC) CD90.2^+T cells along with 5×10^6 T-cell-depleted BM (TCD-BM) cells from either syngeneic or allogeneic donors on day 0. [B6Ly5.2→B6] and [B6 Ly5.2→Sdhaf1^−/−] animals received 900 cGy TBI on day −1 and were injected intravenously with 3×10^6 CD90.2^+T cells and 5×10^6 TCD-BM from either syngeneic B6 or BALB/c donors on day 0. For the chemotherapy conditioning model, B6 WT mice received busulfan (#B2635, 25 mg kg^−1 from day −7 to −4; Sigma-Aldrich) and cyclophosphamide (#C7397, 100 mg kg^−1 from day −3 to −2; Sigma-Aldrich) intraperitoneally, and 1×10^7 (BALB/c→C57BL/6) CD90.2^+T cells along with 1×10^7 TCD-BM cells from either syngeneic or allogeneic donors on day 0. For the no-irradiated model, unirradiated B6D2F1 mice were intravenously injected with 10×10^7 splenocytes from B6D2F1 or B6 donors. Animals received vehicle or dimethyl malonate (DMM, #136441, 0.5 g or 5g kg^−1, Sigma-Aldrich, St. Louis, MO, USA), dimethyl itaconate (DI, #09533, 0.25 g or 2.5g kg^−1, Sigma-Aldrich) or atpenin A5 (#11898, 0.9 μg or 9 μg kg^−1, Cayman Chemical, Ann Arbor, MI, USA) according to manufacturer's instructions by flexible 20-gauge, 1,5-in, intra-gastric gavage needle every other day from day 0. […]
Succinate dehydrogenase functional staining: Specimens were dissected from naïve, syngeneic and allogeneic WT B6 mice at 7 and 21 days post HCT. […] After mounting the slides, images were obtained using Olympus BX51M (Olympus, Japan) and the SDH activity was quantified using Image J (National Institutes of Health, Bethesda, […], USA).

[4] = tested on: GI GVHD in B6 WT recipients; format: in vivo; details: for histopathological GVHD severity in the colon and ileum / histopathological GVHD severity in the liver, skin, and lungs: allogeneic recipients, 7 days post HCT; for clinical GVHD severity of allogeneic mice vs vehicle / survival of allogeneic mice vs vehicle / survival of syngeneic mice: gavage every other day from day 0 post HCT
Method: Hematopoietic cell transplantation (HCT): Splenic T cells from donors were enriched, and the BM was depleted of T cells by autoMACS (Miltenyi Biotec, Bergisch Gladbach, Germany) utilizing CD90.2 microbeads (#130-121-278, Miltenyi Biotec). WT B6, C3H.SW, Sdhaf1^−/−, Sdha^Δ/IEC , Irg1h−/−B6 and BALB/c animals were used as recipients and received 1,000 cGy (WT B6, Sdhaf1^−/−and Sdha^Δ/IEC) or 800 cGy (BALB/c) TBI on day −1, respectively, and 1×10^6 (C3H.SW→C57BL/B6 or C57BL/B6→BALB/c), 3×10^6 (BALB/c→C57BL/6, Sdhaf1^−/−, Sdha^Δ/IEC) CD90.2^+T cells along with 5×10^6 T-cell-depleted BM (TCD-BM) cells from either syngeneic or allogeneic donors on day 0. [B6Ly5.2→B6] and [B6 Ly5.2→Sdhaf1^−/−] animals received 900 cGy TBI on day −1 and were injected intravenously with 3×10^6 CD90.2^+T cells and 5×10^6 TCD-BM from either syngeneic B6 or BALB/c donors on day 0. For the chemotherapy conditioning model, B6 WT mice received busulfan (#B2635, 25 mg kg^−1 from day −7 to −4; Sigma-Aldrich) and cyclophosphamide (#C7397, 100 mg kg^−1 from day −3 to −2; Sigma-Aldrich) intraperitoneally, and 1×10^7 (BALB/c→C57BL/6) CD90.2^+T cells along with 1×10^7 TCD-BM cells from either syngeneic or allogeneic donors on day 0. For the no-irradiated model, unirradiated B6D2F1 mice were intravenously injected with 10×10^7 splenocytes from B6D2F1 or B6 donors. Animals received vehicle or dimethyl malonate (DMM, #136441, 0.5 g or 5g kg^−1, Sigma-Aldrich, St. Louis, MO, USA), dimethyl itaconate (DI, #09533, 0.25 g or 2.5g kg^−1, Sigma-Aldrich) or atpenin A5 (#11898, 0.9 μg or 9 μg kg^−1, Cayman Chemical, Ann Arbor, MI, USA) according to manufacturer's instructions by flexible 20-gauge, 1,5-in, intra-gastric gavage needle every other day from day 0. The mice were randomly assigned to syngeneic, allogeneic or treatment groups in each experiment. No mice were excluded from analysis. No statistical methods were used to predetermine sample size. The investigators were not blinded to allocation during experiments and outcome assessment.
Systemic and histopathological analysis of GVHD: Survival after HCT was monitored daily and assessed the degree of clinical GVHD weekly, as described previously^64. Histopathological analysis of the liver, gastrointestinal (GI) tract, and lung, which are the primary GVHD target organs, was performed as described utilizing a semi-quantitative scoring system implemented in a blinded manner by a single pathologist (C.L.)^65. After scoring, the codes were broken, and the data compiled.

[5] = tested on: primary colonic epithelial cells (PCECs); assay: In vitro allogeneic CTL assay, AnnexinV positive cells of Green CMFDA Dye positive PCECs; details: PCECs treated 0.2 mM for 2 hours
Method: PCECs were pre-treated with 5mM DMM, 0.5mM DI, 10nM atpenin A5 or vehicle for 3 hours.
Flow cytometry: Cells were re-suspended in 2% BSA in PBS and stained with the following antibodies and reagents; FITC-anti-CD326 (G8.8, #118208, 1:200), APC-anti-CD326 (G8.8, #118214, 1:200), DAPI, CellROX Deep Red (#C10491, 500 nM, Thermo Scientific), MitoSOX (#M36008, 5 μM, Thermo Scientific), JC-1 (#M34152, 2 μM, Thermo Scientific), 7-AAD (#420404, 1:100, BioLegend), Annexin V (#640947, 1:20, Biolegend), anti-CD16/CD32 antibody (BD Biosciences, 2.4G2), APC-anti-CD45.2 (#109814, 1:200, BioLegend), and CellTracker Green CMFDA Dye (#C7025, 1 μM, Invitrogen) according to manufacturer's protocol. Cells were run on Attune NxT flow cytometer (Thermo Scientific) and analyzed using FlowJo v10.2 (FlowJo LLC, Ashland, OR).

B6 WT mice, colonic IECs = assay: DSS chemical induced colitis model; format: in vivo; details: twelve days after DSS treatment, vs control animals
Method: Colitis models: For the DSS colitis model, animals were provided with drinking water containing 2.5-3% DSS (#0216011010. MP Biomedicals, Santa Ana, CA) for 7 days. Mice were injected with 100 μg of anti-CTLA-4 mAb (#BE0164, clone 9D9, Bio X Cell, West Lebanon, NH) or isotype control (#BE0086, MCP-11, Bio X Cell) twice (3 and 1 day before DSS administration). For the T-cell transfer induced colitis model, isolated splenic T cells from WT B6 and Prf^−/−mice were stained with DAPI (#422801, 1 μM, Biolenged), APC-Cy7 anti-CD4 (#560246, GK1.5, 1:100, BD Biosciences, San Jose, CA), APC anti-CD25 (#101910, 3C7, 1:100, Biolegend), FITC anti-CD44 (#103006, IM7, 1:100, Biolegend) and PE anti-CD45RB (#103308, C363-16A, 1:100, Biolegend). CD4^+CD25^−CD44^−CD45RB^hi cells were sorted with the MoFlo Astrios cell sorter (Beckman Coulter, Indianapolis, IN) and intraperitoneally injected into Rag-1^−/−recipients.
Fluorescent immunohistochemistry staining: Sections were prepared as mentioned in the SDH functional staining method. […] SDH levels were quantified and measured in intensity from Cy3 positive epithelial cells using Image J. For primary mice colonic epithelial cells, cells were spun down and put on coverslips. […]
Succinate quantification: Isolated IECs were collected, processed and analysed using the Succinate Assay Kit (#ab204718, Abcam) according to the manufacturer's protocol.

O=S(=O)(O)c1cc(O)c(O)c(S(=O)(=O)O)c1 [Tiron]
apoptosis of PCECs induced by GranzymeB and perforin [1]: did not reduce apoptosis

COC(=O)CC(=O)OC [malonate, dimethyl malonate]
ATP production, difference between mitochondria from allogeneic and syngeneic/naive animals [2]: difference diminished | cell death of pre-treated PCECs vs diluent [3]: significantly higher levels of cell death | apoptosis of pre-treated PCECs [3]: no increase in apoptosis | SDHA function (SDH enzymatic staining) (SDHA): inhibited SDHA function | histopathological GVHD severity in the colon and ileum [4]: increased GVHD severity | histopathological GVHD severity in the liver, skin, and lungs [4]: not in the liver, skin, and lungs | clinical GVHD severity of allogeneic mice vs vehicle [4]: more severe GVHD symptoms | survival of allogeneic mice vs vehicle [4]: died significantly faster | survival of syngeneic mice [4]: survived

C=C(CC(=O)OCCCCCCCC)C(=O)O [4-octyl itaconate, 4-Octyl itaconate]
susceptibility to T cell mediated cytotoxicity [5]: enhance susceptibility to T cell mediated cytotoxicity

COc1[nH]c(=O)c(C(=O)[C@@H](C)C[C@H](C)[C@@H](Cl)CCl)c(O)c1OC [atpenin A5]
SDHA function (SDH enzymatic staining) (SDHA): inhibited SDHA function | clinical GVHD severity of allogeneic mice vs vehicle [4]: more severe GVHD symptoms | survival of allogeneic mice vs vehicle [4]: died significantly faster | survival of syngeneic mice [4]: survived

C=C(CC(=O)OC)C(=O)OC [itaconate, dimethyl itaconate]
cell death of pre-treated PCECs vs diluent [3]: significantly higher levels of cell death | apoptosis of pre-treated PCECs [3]: no increase in apoptosis | SDHA function (SDH enzymatic staining) (SDHA): inhibited SDHA function | histopathological GVHD severity in the colon and ileum [4]: increased GVHD severity | histopathological GVHD severity in the liver, skin, and lungs [4]: not in the liver, skin, and lungs | clinical GVHD severity of allogeneic mice vs vehicle [4]: more severe GVHD symptoms | survival of allogeneic mice vs vehicle [4]: died significantly faster

Cc1c(C)c2c(c(C)c1O)CCC(C)(C(=O)O)O2 (stereo not shown) [Trolox]
apoptosis of PCECs induced by GranzymeB and perforin [1]: did not reduce apoptosis

dextran sulfate sodium [DSS]
SDHA levels in colonic IECs (B6 WT mice, colonic IECs): similar | succinate levels in colonic IECs (B6 WT mice, colonic IECs): similar

From patent US20240082183A1, “METHODS FOR PREVENTING OR TREATING CONDITIONS RELATED TO T CELL MEDIATED INTESTINAL DISORDERS” (The Regents of the University of Michigan, priority 2021, published 2024)
